The record followed here is patent US20250361217A1, “FATTY ACID COMPOUNDS” (University of Pittsburgh - Of the Commonwealth System of …, priority 2022, published 2025).

What all share (assay type): in vivo
Experiment [1] concerns HFD model in C57BL/6J mice. Nature of the experiment: Glucose tolerance test (GTT) in HFD NAFLD mouse model. An excerpt:
(§1) Male C57BL/6J mice were purchased from Jackson Laboratory (Bar Harbor, ME, USA). Mice were acclimated for a week before being randomized to receive either a low-fat diet (LFD) or a high-fat diet (HFD) purchased from Research Diets (New Brunswick, NJ, USA). Obesity was induced by the HFD (D12492, with 60% of the adjusted calories derived from fat) for 16 weeks beginning at age of 8 weeks. Age-matched controls were maintained on a LFD (D12450J, matching the sucrose level of D12492). While maintaining the diet, mice under HFD were divided into 4 groups (n=8 per group) and were treated every 2 days by oral gavage for 7 weeks with 100 μl of 11D3 (50 mg/kg), 11U3 (50 mg/kg), or 11U3-2M (50 mg/kg) formulated in a solution of 2:1 of polyethylene glycol (Fisher Scientific, PEG400 #p167-1) and saline, containing 1.5% of octanoic acid (TCI, #00027). Control groups received 100 μl of PEG400/saline/octanoic acid as the vehicle (Veh). LFD mice were divided into 2 groups (n=8 per group) and treated with veh or 11D3 (50 mg/kg) to detect any effect of natural FuFA in LFD. Mice were grouped to start at the same weight mean before starting the treatment. During and before gavage treatment, mice were fed ad libitum and given free access to water. Food intake, water consumption, and mouse weight were monitored every week. At 20 weeks (4 weeks of treatment), a glucose tolerance test (GTT) was performed on all cohorts. After 2 weeks of recovery (22 weeks), a whole-body composition was performed using EchoMRI™-100H. At the end of the 23 weeks study, mice were euthanized with isoflurane followed by laparotomy. The blood was collected, and mice were perfused using 0.9% NaCl. Organs were harvested and snap-frozen in liquid nitrogen gas and stored at −80° C. for further analysis. The Cellerusher (Cell Crusher, Schull, Ireland) tissue pulverizer was used to reduce frozen tissues to a fine, easily recoverable powder using dry ice. For immunohistochemistry, the same liver lobe for every mouse was fixed in Formalin 10% (Fisher Chemical, #SF98-4) for 48h, followed by 75% ethanol baths before paraffin embedding.
GTT was performed on mice fasted for 5h. Mice were injected intraperitoneally with filter-sterilized 1.5 g/kg glucose in 0.9% NaCl. Blood glucose levels were measured using a hand-held glucometer (Accu-Chek Aviva, Roche Diagnostics, Indianapolis, IN, USA) at 0, 20, 40, 60, 90, and 120 min.

Experiment [2] concerns HFD model in C57BL/6J mice. Briefly: Plasma insulin, metabolic hormones, AST/ALT, TNF-α in HFD mice.
Description: as §1
After collection, red blood cells and plasma were separated by centrifugation for 5 min at 7500 g at 4° C., aliquoted, and stored at −80° C. Insulin levels were measured by ELISA (Invitrogen, #EMINS) using 50 μl of plasma as per the manufacturer's instructions. Aspartate aminotransferase (AST) and alanine aminotransferase (ALT) levels were both measured using 5 μl of plasma with ELISA (Abcam, #ab263882 and #ab282882, respectively). Metabolic hormones were determined using Luminex xMAP technology (Milliplex mouse metabolic hormone expanded panel #MMHE-44K, Millipore, Burlington, MA, USA). The multiplex metabolic hormones plate was measured as per the manufacturer's instructions.

For experiment [3], the system named is HFD model in C57BL/6J mice. Briefly: Liver histology (H&E) scores of steatosis, ballooning, inflammation in HFD mice. The conditions noted are these: 50 mg/kg. An excerpt:
Male C57BL/6J mice were purchased from Jackson Laboratory (Bar Harbor, ME, USA). Mice were acclimated for a week before being randomized to receive either a low-fat diet (LFD) or a high-fat diet (HFD) purchased from Research Diets (New Brunswick, NJ, USA). Obesity was induced by the HFD (D12492, with 60% of the adjusted calories derived from fat) for 16 weeks beginning at age of 8 weeks. Age-matched controls were maintained on a LFD (D12450J, matching the sucrose level of D12492). While maintaining the diet, mice under HFD were divided into 4 groups (n=8 per group) and were treated every 2 days by oral gavage for 7 weeks with 100 μl of 11D3 (50 mg/kg), 11U3 (50 mg/kg), or 11U3-2M (50 mg/kg) formulated in a solution of 2:1 of polyethylene glycol (Fisher Scientific, PEG400 #p167-1) and saline, containing 1.5% of octanoic acid (TCI, #00027). Control groups received 100 μl of PEG400/saline/octanoic acid as the vehicle (Veh). LFD mice were divided into 2 groups (n=8 per group) and treated with veh or 11D3 (50 mg/kg) to detect any effect of natural FuFA in LFD. […] Food intake, water consumption, and mouse weight were monitored every week. […]
The fixed Liver tissues embedded in paraffin were cut into 4 μm sections. […] Quantifications and scores of liver steatosis, ballooning, and inflammation were performed blindly by a pathologist based on 3 parameters—steatosis, inflammation, hepatocyte degeneration.

Experiment [4] concerns liver of HFD mice. Briefly: Untargeted/targeted metabolomic mass spectrometry of liver (sphingolipids, acylcarnitine). How it is done: Liver powder (50 mg) was resuspended in 500 μL of H2O and extracted using ethyl acetate (1 mL). Phases were separated by centrifugation for 5 min at 1500 g at 4° C. and the organic phase was collected and dried under nitrogen gas. For acetonitrile precipitation, 200 μL of ice-cold ACN was added to liver tissue homogenized in water and vortexed thoroughly. Samples were centrifuged for 5 min at 1500 g at 4° C. and all the phases were removed and dried under nitrogen gas. Dried samples were reconstituted with McOH and transferred to clean mass spectrometry vials for analysis.
Mass spectrometry data was collected using a Q Exactive Orbitrap (ThermoFisher Scientific) to obtain high-resolution accurate mass data in positive and negative ion modes. Two different Chromatography system were used: The organic phase from Bligh and Dyer extraction sample was performed using a 100×2 mm Luna® 5 μm C18(2) column (phenomenex,00D-4252-BO) with a 0-100% gradient of solvent B (90:10 isopropyl alcohol, ACS reagent for HPLC (Honeywell #AH323):ACN, 0.1% formic acid, reagent grade (Sigma #F0507) and solvent A (70:30 Water, Optima™ LC/MS Grade (Fisher #W6500):acetonitrile, 0.1% formic acid) over 20 min, followed by 100% solvent B for 6 min before a return to 0% solvent B for 4 min at a flow rate of 0.650 mL/min. Chromatography for aqueous Bligh and Dyer phase and acetonitrile precipitation extract was performed using the same column with a gradient of 10-100% solvent D (ACN, 0.1% formic acid) and solvent C (water, 0.1% formic acid) over 18 min, followed by 100% solvent D for 6 min before returning to 10% solvent D for 6 min at a flow rate of 0.650 mL/minute. […]
Ceramide and carnitine conjugates were extracted in the presence of ceramide standard (18:1/17:0) (N-heptadecanoyl-D-erythro-sphingosine, Avanti Polar Lipids #860517) using ethyl acetate and quantified using mass spectrometry.
Mass spectrometry data was collected using an API 5000 LC/MS/MS in positive ion mode. […] Quantitation of analyte and internal standard peak areas was determined using the Quantitation Wizard in Sciex's Analyst® Software.

Experiment [5] in a line: Energy expenditure and respiratory exchange ratio (FIG. 6D). The conditions noted are these: mice after treatment.

Turning to `CCCc1ccc(CCCCCCCCCC(C)(C)C(=O)O)o1` [11U3-2M, 2,2-Dimethyl-11-(5-propylfuran-2-yl)undecanoic acid], the “blood glucose clearance measured by GTT compared to veh” value in experiment [1] (50 mg/kg gavage every 2 days, after 4 weeks of treatment) was “significantly improved”. Also, in experiment [1] (50 mg/kg, 4 weeks), the “decrease in glucose area under the curve from 0 to 120 min vs veh” value is on record as 24% and the fasting blood glucose entry is “trend in decreased glucose”. The “less glucose in GTT vs veh” value in experiment [1] (20 min time point, 50 mg/kg, 4 weeks) was determined as 18%. Further, the “less glucose in GTT vs veh” value in experiment [1] (40 min time point, 50 mg/kg, 4 weeks) is reported as 26%. The “less glucose in GTT vs veh” value in experiment [1] (60 min time point, 50 mg/kg, 4 weeks) is given as 22%. For the same molecule, in experiment [2] (50 mg/kg), the “lower insulin plasma level compared to veh (ELISA)” value amounted to 68%, the “plasma level of AST” value is recorded as “significant reduction” and the “plasma level of TNF-α” value is reported as “significant reduction”. In addition, in experiment [2] (50 mg/kg, milliplex), the “lower plasma C-peptide 2 compared to veh” value was 43% and the “lower plasma gastric inhibitory polypeptide (GIP) compared to veh” value is reported as 36%. Also, the “liver enzyme ALT” value in experiment [2] (FIG. 3D legend) is “improving liver enzymes (AST and ALT)”. In addition, in experiment [3], the “ballooning degeneration of hepatocytes vs HFD+veh” value is listed as “significantly alleviated” and the “liver steatosis vs HFD+veh” value is given as “significantly alleviated”. In experiment [4] (50 mg/kg), the “liver metabolites changed by HFD (untargeted metabolomics)” value is given as “returned the liver to its basal condition”. For the same molecule, the “liver sphingomyelins SM(18:1/16:0), SM(18:1/20:0), SM(18:1/24:0) vs HFD+veh” value in experiment [4] (effect relative to that on ceramides) was “analogous”. Besides, in experiment [4] (targeted quantification), the “liver ceramides (e.g. Cer(18:1/16:0), Cer(18:1/20:0), total ceramide) vs HFD+veh” value is listed as “significant reduction”. In experiment [5], the energy expenditure entry is “no change” and the respiratory exchange ratio result was “no change”.
